Assay results taken from US6265423A, “Aromatic polycyclic retinoid-type derivatives, method for preparing same, and use thereof for making pharmaceutical and cosmetic compositions” (priority 1996, dated 2001).
Entries after “also recorded” stand apart in the source; their conditions may differ.

Key:
[1] = system: RAR-ERcassettes (RARα, RARβ, RARγ); experiment: Chimerical receptors RAR-ERcassettes, overall profile; assay type: cell-based
Excerpt: (§1) The HeLa cells are co-transfected by a plasmid which codes for a retinoic receptor in which the C domain of bonding to the DNA is substituted by that of the receptor to RE oestrogens, and a plasmid which places the expression of the luciferase under the control of an ERE (Element of Response to Oestrogens). The expressed chimerical receptors are designated as RARα-ERcassette, RARβ-ERcassette, RARγ-ERcassette and RXRα-ERcassette. The A, B, D, E and F regions of the natural receptor are preserved as well as the transcriptional co-operation between the activation domains AF-1 and AF-2. These transitory transfection experiments follow the method of co-precipitation to calcium phosphate. The HeLa cells are co-transfected by […] of plasmid coding for the chimerical receptor, […] of reporter plasmid and […] of expression vector CMV-β-galactosidase used as an internal control of transfection. 24 hours after the transfection, the cells are incubated for 16 hours with the different effectors.
(§2) In this type of chimerical receptor, the C domain of bonding to the DNA of RAR is substituted by that of the receptor to the RE oestrogens. The protein obtained is close to the natural RAR receptor and preserves the transcriptional properties of the AF-1 and AF-2 domains. It modulates the transcription by means of an ERE. This RAR-ERcassette model allows one to observe a transcriptional response to a more physiological ligand.

[2] = system: human mammary tumoral lineage T-47D; experiment: Clonogenic test (soft agar), growth of cellular colonies; assay type: cell-based; details: T-47D, soft agar
Excerpt: The human tumour stem cells are the clonogenic cells which are the origin of the neoplasic cells which constitute a given tumour. These tumour stem cells are responsible for the recidivism process observable after surgical resection of the primary tumours and are also responsible for the formation of metastases. […] At the level of a tumour or of a tumoral cellular lineage, these clonogenic stem cells distinguish themselves from other clonogenic cells of the tumour or of the neoplasic cellular lineage being considered, by the fact that they preserve their ability to proliferate in the absence of any solid support.
This technique is suitable for the culturing in vitro of most of the tumours and tumoral cellular lineages of various histological types. In the context of this test, the neoplastic cells are cultured on a semi-solid culture medium "soft agar" made up of a mixture of agar and agarose. On this selective support, only tumoral stem cells survive and proliferate. […] The morphological characteristics and the growth of the cellular colonies are also a function of the histological type of the tumours being considered.
These culture conditions are also called "anchorage-independent" conditions.
The base medium "MEM 25 MM HEPES" (Minimum Essential Medium, Life Technologies, Belgium) contains Eagle salts but no L-glutamine. This medium is well suited to the growth of a range of varied diploid cells or primary mammal cells. To this medium is then added:
The tumoral cells are maintained in culture in 25 cm^2 falcon dishes (Life Technologies, Belgium). They are then trypsinised and individualised. Their rate of viability is determined by coloration with trypan blue (Sigma, Belgium). It must be greater than 90%. In the case where this condition is kept to, a cellular suspension at the desired concentration is prepared in a solution of agar at 0. 3%. The cells are then seeded between two layers of agar (Sigma, Belgium) and in 35 mm Petri dishes (Life Technologies, Belgium). The base layer is made up of a 0.5% solution of agar and the top layer is made up of a 0.3% solution of agar. The cupules are then positioned and held in an incubator at 37° C. and 5% of CO2. […] After treatment, the cupules are kept in the incubator for 21 days. It is advisable to examine, during the course of the experiment, the appearance and the increase of the cellular colonies. If after 10 days, no colony appears or is developing, the experiment must be repeated. In the contrary case, on the 21st day, 100 μl of an MTT solution (3-(4,5-dimethylthiazol-2-yl)-2,5 diphenyl tetrazolium bromide; Sigma, Belgium) dissolved in the RPMI culture medium (Roswell park Memorial Institute, Life Technologies, Belgium), at the concentration of 1 mg/ml are deposited on the top layer of the group of cupules. The cells are kept in contact with this solution for a minimum of 3 hours at 37° C.
Using an inverted microscope at low magnification, the number of clones whose surface area is greater thar. 100 μm^2 is determined for the group of cupules representing all the different experimental conditions. Then, for each of these experimental conditions, the mean number of cellular colonies±the standard error on the mean (ESM) is calculated.
The mean number of cellular colonies determined for each experimental condition is expressed as a percentage in relation to the control condition made equal to 100%.

[3] = system: RARE, endogenic RAR and RXR receptors, HRL+N lineage; experiment: HRL+N transactivation (RARE-luciferase, stably transfected HeLa); assay type: cell-based
Method: (§3) MCF-7 cells and HeLa are cultivated in DMFM with phenol red to which 5% foetal calf serum is added. The T47-D cells are cultivated in RPMI to which 10% foetal calf serum is added. The experimental tests are carried out in DMEM without phenol red to which foetal calf serum treated with dextran carbon is added at 3%. […] The experiments using the different retinoids are carried out sheltered from the light so as to avoid any isomerisation.
(§4) Certain properties of the retinoids have been determined using more developed cellular models. These models consist of cellular lineages transfected in a stable fashion by recombinant plasmids which place the expression of the gene of the luciferase under the control of different nuclear response elements. […] The tests carried out in duplicate are described below for each of these models.
The cellular lineages HRLN and HRL+N allow one to study the activation of an RARE by endogenic receptors using ligands at physiological concentrations. These lineages derive from HeLa cells transfected in a stable fashion by a reporter gene which places the expression of the gene of the luciferase under the control of a nuclear response element RARE (RARE3 -tk-Luc). The HeLa cells express all the known receptors of the retinoic acid (RARα,β,γ and RXRα,β,γ) with a predominance of RARα and RXRα. The response element RARE used for the HRLN cells corresponds to the sequence of the natural gene of the RARβ receptor (GGTTCAnnnnnAGTTCA). The HRL+N cells comprise the sequence GAGTGAnnnnnCGGTGA.
The HRL+N lineage allows one to visualise a co-activation of the RAR and RXR receptors at the level of the RAR-RXR hetero-dimer.

[4] = system: A549 human pulmonary cancer cells; experiment: MTT test, proliferation of A549; assay type: cell-based; details: MTT test
[5] = system: AP-1, MTLN lineage (MCF-7); experiment: Anti-AP-1 effect, MTLN lineage activated by TPA; assay type: cell-based, human; details: TPA-activated MTLN cells
Method: as §4
The anti-factor AP-1 transrepressor effect of retinoids is determined using the MTLN lineage, coming from MCF-7 cells transfected in a stable fashion by a vector p(TRE)3 -tk-Luc which places the expression of the gene of luciferase under the control of […]. TPA activates the AP-1 complex formed from proteins of the family of nuclear proto-oncogenes (c-Jun and c-Fos). […] The experiments are made with the MTLN cells activated by 10^-7 M TPA.
The effect of the compounds on the MTLN cells activated by 10^-7 M TPA is expressed as a percentage. […] The inhibitive properties of the products are calculated after deduction of the base activity of the cells. The percentages reported correspond to a range of inhibitions determined from several experiments.

Gal4-RARβ = experiment: Transactivation, chimerical receptor Gal4-RARβ (transitory transfection of HeLa); assay type: cell-based; details: 100% = TTNPB 10^-8 M
MCF-7 cells = experiment: Effect on oestrogen-induced proliferation of MCF-7 cells; assay type: cell-based, human; details: estradiol 10^-9 M
Method: MCF-7 cells and HeLa are cultivated in DMFM with phenol red to which 5% foetal calf serum is added. […] The experimental tests are carried out in DMEM without phenol red to which foetal calf serum treated with dextran carbon is added at 3%. […] The experiments using the different retinoids are carried out sheltered from the light so as to avoid any isomerisation.

T-47D cells = experiment: Effect on oestrogen-induced proliferation of T-47D cells; assay type: cell-based, human; details: estradiol 10^-9 M
Method: as §3
So as to test the anti-proliferation effect of the retinoids, growth experiments under oestrogenic conditions were carried out on cells MCF-7 and T-47D. These are the human oestrogen-dependent mammary cancer cells which express the receptor to RE oestrogens. The effect of the molecules is evaluated after 7 days of culture in oestrogenic conditions (estradiol 10^-9 M) by dosing the cellular DNA. The cells are distributed in 24 well plates at a density of 2×10^4 cells per well. The tests with the different retinoids are carried out in triplicate and the culture medium is changed after 4 days of growth.

Gal4-RARγ = experiment: Transactivation, chimerical receptor Gal4-RARγ (transitory transfection of HeLa); assay type: cell-based; details: 100% = TTNPB 10^-8 M
RARβ-ERcassette = experiment: Transactivation, chimerical receptor RARβ-ERcassette (HeLa); assay type: cell-based; details: TTNPB 10^-8 M = 100
Excerpt: as §1, §2

Which results are given for `C=C(c1ccc(C(=O)O)cc1)c1cc2c(cc1C)C(C)(C)CCC2(C)C` [LGD1069, reference compound]?
RAR-ERcassette profile (in words) [1]: transcriptional power appears higher notably through the RARβ-ERcassette; also recorded: permits a co-activation of RAR and RXR, bringing about an over-activation of the hetero-dimer in comparison with the specific RAR activation of TTNPB; effect on growth of cellular colonies (in words) [2]: strongly and significantly inhibits the growth of cellular colonies of the T-47D lineage; HRL+N transactivation (in words) [3]: induce a stronger transactivation with the HRL+N cells; also recorded: behaves as a panagonistic molecule; effect on cellular increase, A549 (in words) [4]: induces a stimulation of the proliferation of the A549 cells at 10^-6 M and 10^-8 M; anti-AP-1 effect (in words) [5]: causes an inhibition of the AP-1 route; also recorded: the most effective compound tested in this model; GAL4-RAR RARβ transactivation (Gal4-RARβ; 10^-7 M): 5%; GAL4-RAR RARβ transactivation (Gal4-RARβ; 10^-8 M): 1%; effect on oestrogen-induced growth, MCF-7 (in words) (MCF-7 cells): exerts no effect whatsoever on the growth of MCF-7 and T-47D cells in oestrogenic conditions; effect on oestrogen-induced growth, T-47D (in words) (T-47D cells): exerts no effect whatsoever on the growth of MCF-7 and T-47D cells in oestrogenic conditions; GAL4-RAR RARγ transactivation (Gal4-RARγ; 10^-6 M): 29%; GAL4-RAR RARγ transactivation (Gal4-RARγ; 10^-7 M): 8%; GAL4-RAR RARγ transactivation (Gal4-RARγ; 10^-8 M): 1%; RAR-ERcassette RARβ transactivation (RARβ-ERcassette; 10^-6 M): 237%; RAR-ERcassette RARβ transactivation (RARβ-ERcassette; 10^-7 M): 194%
